Data as given in patent US20240299385A1 (ReWind Therapeutics NV, priority 2021, published 2024).

Molecular target: T1, human GPR17 receptor (Homo sapiens, UniProt Q13304)
T1 construct: host or cells: HEK-293
Test: Calcium mobilization functional assay (Fluo-8, FLIPR TETRA) in HEK-293 hGPR17 (Gα-q assay)
Assay type: cell-based
Details: antagonism of MDL29,951 (~EC80) induced Ca2+ signal; cell line (HEK-293 hGPR17 or HEK-293 Suchi5 hGPR17) not given
Outline: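 Fluo-8-loaded HEK-293 hGPR17 cells (60 min dye loading, room temperature) were preincubated with compound for twenty minutes, then challenged with agonist MDL29,951 at ~EC80, 500 nM. Intracellular calcium release via Gα-q was recorded as FLIPR fluorescence for a further 2 minutes; compounds tested in duplicate.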

T1 sequence (Q13304 whole entry): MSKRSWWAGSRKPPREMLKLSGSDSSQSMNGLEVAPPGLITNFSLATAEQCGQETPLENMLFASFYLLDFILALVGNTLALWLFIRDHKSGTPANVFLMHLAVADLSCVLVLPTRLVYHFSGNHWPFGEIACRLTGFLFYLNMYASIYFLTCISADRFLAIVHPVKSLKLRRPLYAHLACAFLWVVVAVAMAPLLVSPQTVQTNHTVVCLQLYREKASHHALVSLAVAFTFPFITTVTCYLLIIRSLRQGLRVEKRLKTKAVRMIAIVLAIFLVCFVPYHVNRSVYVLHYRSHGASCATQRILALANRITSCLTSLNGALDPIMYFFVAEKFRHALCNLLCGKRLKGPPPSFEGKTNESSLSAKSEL

Structure (SMILES) | IC50 [nM]
O=S(=O)(Nc1cc(F)c(OC2CC2)cc1F)c1c[nH]c(-c2ccccn2)c1 [Cpd 311, N-[4-(cyclopropoxy)-2,5-difluoro-phenyl]-5-(2-pyridyl)-1H-pyrrole-3-sulfonamide] | 500 to 5000
N#Cc1ccc(NS(=O)(=O)c2c[nH]c(-c3ccccc3)c2)c(F)c1Cl [Cpd 312, N-(3-chloro-4-cyano-2-fluoro-phenyl)-5-phenyl-1H-pyrrole-3-sulfonamide] | 500 to 5000
O=S(=O)(Nc1ccc(C(F)(F)F)cc1F)c1c[nH]c(-c2ccccc2)c1 [Cpd 313, N-[2-fluoro-4-(trifluoromethyl)phenyl]-5-phenyl-1H-pyrrole-3-sulfonamide] | 500 to 5000
N#Cc1ccc(NS(=O)(=O)c2c[nH]c(-c3cc(F)cc(Cl)c3)c2)c(F)c1 [Cpd 316, 5-(3-chloro-5-fluoro-phenyl)-N-(4-cyano-2-fluoro-phenyl)-1H-pyrrole-3-sulfonamide] | 500 to 5000
N#Cc1ccc(NS(=O)(=O)c2c[nH]c(-c3ccccc3)c2)c(F)c1F [Cpd 317, N-(4-cyano-2,3-difluoro-phenyl)-5-phenyl-1H-pyrrole-3-sulfonamide] | 500 to 5000
N#Cc1ccc(NS(=O)(=O)c2c[nH]c(-c3ccccn3)c2)c(F)c1F [Cpd 322, N-(4-cyano-2,3-difluoro-phenyl)-5-(2-pyridyl)-1H-pyrrole-3-sulfonamide] | 500 to 5000
Cc1cc(NS(=O)(=O)c2c[nH]c(-c3ccccc3)c2)c(F)cc1C#N [Cpd 326, N-(4-cyano-2-fluoro-5-methyl-phenyl)-5-phenyl-1H-pyrrole-3-sulfonamide] | < 500
Cc1ccc(-c2cc(S(=O)(=O)Nc3ccc(C#N)cc3F)c[nH]2)c(C)c1 [Cpd 329, N-(4-cyano-2-fluoro-phenyl)-5-(2,4-dimethylphenyl)-1H-pyrrole-3-sulfonamide] | 500 to 5000
Cc1ccc(C)c(-c2cc(S(=O)(=O)Nc3ccc(C#N)cc3F)c[nH]2)c1 [Cpd 331, N-(4-cyano-2-fluoro-phenyl)-5-(2,5-dimethylphenyl)-1H-pyrrole-3-sulfonamide] | < 500
N#Cc1cc(F)c(NS(=O)(=O)c2c[nH]c(-c3ccccc3)c2)cc1Cl [Cpd 333, N-(5-chloro-4-cyano-2-fluoro-phenyl)-5-phenyl-1H-pyrrole-3-sulfonamide] | < 500
O=S(=O)(Nc1ccc(C(F)(F)F)c(Cl)c1F)c1c[nH]c(-c2ccccn2)c1 [Cpd 335, N-[3-chloro-2-fluoro-4-(trifluoromethyl)phenyl]-5-(2-pyridyl)-1H-pyrrole-3-sulfonamide] | 5000 to 50000
N#Cc1ccc(NS(=O)(=O)c2c[nH]cc2Cc2cccc(OC3CC3)c2)c(F)c1 [Cpd 340, N-(4-cyano-2-fluoro-phenyl)-4-[[3-(cyclopropoxy)phenyl]methyl]-1H-pyrrole-3-sulfonamide] | 500 to 5000
CC(C)Oc1cccc(Cc2c[nH]cc2S(=O)(=O)Nc2ccc(C#N)cc2F)c1 [Cpd 341, N-(4-cyano-2-fluoro-phenyl)-4-[(3-isopropoxyphenyl)methyl]-1H-pyrrole-3-sulfonamide] | 500 to 5000
N#Cc1ccc(NS(=O)(=O)c2c[nH]cc2Cc2cccc(OCC3CC3)c2)c(F)c1 [Cpd 342, N-(4-cyano-2-fluoro-phenyl)-4-[[3-(cyclopropylmethoxy)phenyl]methyl]-1H-pyrrole-3-sulfonamide] | 500 to 5000
N#Cc1ccc(NS(=O)(=O)c2c[nH]cc2Cc2cccs2)c(F)c1 [Cpd 343, N-(4-cyano-2-fluoro-phenyl)-4-(2-thienylmethyl)-1H-pyrrole-3-sulfonamide] | < 500
N#Cc1ccc(NS(=O)(=O)c2c[nH]c(-c3ccc(F)cn3)c2)c(F)c1 [Cpd 347, N-(4-cyano-2-fluoro-phenyl)-5-(5-fluoro-2-pyridyl)-1H-pyrrole-3-sulfonamide] | 500 to 5000
Cc1cccnc1-c1cc(S(=O)(=O)Nc2ccc(C#N)cc2F)c[nH]1 [Cpd 348, N-(4-cyano-2-fluoro-phenyl)-5-(3-methyl-2-pyridyl)-1H-pyrrole-3-sulfonamide] | < 500
N#Cc1ccc(NS(=O)(=O)c2c[nH]c(-c3ncccc3Cl)c2)c(F)c1 [Cpd 349, 5-(3-chloro-2-pyridyl)-N-(4-cyano-2-fluoro-phenyl)-1H-pyrrole-3-sulfonamide] | < 500

Continued, values first:

IC50 [nM] | Structure (SMILES)
500 to 5000 | N#Cc1ccc(NS(=O)(=O)c2c[nH]c(-c3ncccc3C(F)(F)F)c2)c(F)c1 [Cpd 310, N-(4-cyano-2-fluoro-phenyl)-5-[3-(trifluoromethyl)-2-pyridyl]-1H-pyrrole-3-sulfonamide]
500 to 5000 | COc1ccc(F)cc1-c1cc(S(=O)(=O)Nc2ccc(C#N)cc2F)c[nH]1 [Cpd 314, N-(4-cyano-2-fluoro-phenyl)-5-(5-fluoro-2-methoxy-phenyl)-1H-pyrrole-3-sulfonamide]
500 to 5000 | Cc1ccc(F)c(-c2cc(S(=O)(=O)Nc3cc(F)c(C(F)(F)F)cc3F)c[nH]2)c1 [Cpd 315, N-[2,5-difluoro-4-(trifluoromethyl)phenyl]-5-(2-fluoro-5-methyl-phenyl)-1H-pyrrole-3-sulfonamide]
< 500 | N#Cc1cccc(-c2cc(S(=O)(=O)Nc3cc(F)c(C(F)(F)F)cc3F)c[nH]2)c1 [Cpd 318, 5-(3-cyanophenyl)-N-[2,5-difluoro-4-(trifluoromethyl)phenyl]-1H-pyrrole-3-sulfonamide]
500 to 5000 | Cc1cccc(-c2cc(S(=O)(=O)Nc3cc(F)c(C(F)(F)F)cc3F)c[nH]2)c1F [Cpd 319, N-[2,5-difluoro-4-(trifluoromethyl)phenyl]-5-(2-fluoro-3-methyl-phenyl)-1H-pyrrole-3-sulfonamide]
500 to 5000 | O=S(=O)(Nc1cc(F)c(C(F)(F)F)cc1F)c1c[nH]c(-c2cc(Cl)ccc2F)c1 [Cpd 320, 5-(5-chloro-2-fluoro-phenyl)-N-[2,5-difluoro-4-(trifluoromethyl)phenyl]-1H-pyrrole-3-sulfonamide]
500 to 5000 | Cc1cccc(F)c1-c1cc(S(=O)(=O)Nc2cc(F)c(C(F)(F)F)cc2F)c[nH]1 [Cpd 321, N-[2,5-difluoro-4-(trifluoromethyl)phenyl]-5-(2-fluoro-6-methyl-phenyl)-1H-pyrrole-3-sulfonamide]
500 to 5000 | COc1cccc(-c2cc(S(=O)(=O)Nc3cc(F)c(C(F)(F)F)cc3F)c[nH]2)c1 [Cpd 323, N-[2,5-difluoro-4-(trifluoromethyl)phenyl]-5-(3-methoxyphenyl)-1H-pyrrole-3-sulfonamide]
5000 to 50000 | COc1ccc(-c2cc(S(=O)(=O)Nc3cc(F)c(C(F)(F)F)cc3F)c[nH]2)c(F)c1 [Cpd 324, N-[2,5-difluoro-4-(trifluoromethyl)phenyl]-5-(2-fluoro-4-methoxy-phenyl)-1H-pyrrole-3-sulfonamide]
500 to 5000 | COc1cccc(-c2cc(S(=O)(=O)Nc3cc(F)c(C(F)(F)F)cc3F)c[nH]2)c1F [Cpd 325, N-[2,5-difluoro-4-(trifluoromethyl)phenyl]-5-(2-fluoro-3-methoxy-phenyl)-1H-pyrrole-3-sulfonamide]
500 to 5000 | O=S(=O)(Nc1cc(F)c(C(F)(F)F)cc1F)c1c[nH]c(-c2cccc(Cl)c2F)c1 [Cpd 327, 5-(3-chloro-2-fluoro-phenyl)-N-[2,5-difluoro-4-(trifluoromethyl)phenyl]-1H-pyrrole-3-sulfonamide]
500 to 5000 | O=S(=O)(Nc1c(F)cc(C(F)(F)F)cc1F)c1c[nH]c(-c2ccccc2)c1 [Cpd 328, N-[2,6-difluoro-4-(trifluoromethyl)phenyl]-5-phenyl-1H-pyrrole-3-sulfonamide]
5000 to 50000 | N#Cc1ccc(-c2cc(S(=O)(=O)Nc3cc(F)c(C(F)(F)F)cc3F)c[nH]2)cc1 [Cpd 330, 5-(4-cyanophenyl)-N-[2,5-difluoro-4-(trifluoromethyl)phenyl]-1H-pyrrole-3-sulfonamide]
500 to 5000 | O=S(=O)(Nc1ccc(C(F)(F)F)c(F)c1F)c1c[nH]c(-c2ccccn2)c1 [Cpd 332, N-[2,3-difluoro-4-(trifluoromethyl)phenyl]-5-(2-pyridyl)-1H-pyrrole-3-sulfonamide]
500 to 5000 | O=S(=O)(Nc1ccc(C(F)(F)F)c(F)c1F)c1c[nH]c(-c2ccccc2)c1 [Cpd 334, N-[2,3-difluoro-4-(trifluoromethyl)phenyl]-5-phenyl-1H-pyrrole-3-sulfonamide]
500 to 5000 | Cc1cc(NS(=O)(=O)c2c[nH]c(-c3ccccn3)c2)c(F)cc1C(F)(F)F [Cpd 336, N-[2-fluoro-5-methyl-4-(trifluoromethyl)phenyl]-5-(2-pyridyl)-1H-pyrrole-3-sulfonamide]
500 to 5000 | Cc1cccc(-c2cc(S(=O)(=O)Nc3cc(F)c(C(F)(F)F)cc3F)c[nH]2)c1 [Cpd 337, N-[2,5-difluoro-4-(trifluoromethyl)phenyl]-5-(m-tolyl)-1H-pyrrole-3-sulfonamide]
500 to 5000 | Cc1cc(NS(=O)(=O)c2c[nH]c(-c3ccccc3)c2)c(F)cc1C(F)(F)F [Cpd 338, N-[2-fluoro-5-methyl-4-(trifluoromethyl)phenyl]-5-phenyl-1H-pyrrole-3-sulfonamide]
< 500 | O=S(=O)(Nc1cc(F)c(C(F)(F)F)cc1F)c1c[nH]c(-c2nccs2)c1 [Cpd 339, N-[2,5-difluoro-4-(trifluoromethyl)phenyl]-5-thiazol-2-yl-1H-pyrrole-3-sulfonamide]
500 to 5000 | O=S(=O)(Nc1cc(F)c(C(F)(F)F)cc1F)c1c[nH]c(-c2cccc(C(F)(F)F)n2)c1 [Cpd 344, N-[2,5-difluoro-4-(trifluoromethyl)phenyl]-5-[6-(trifluoromethyl)-2-pyridyl]-1H-pyrrole-3-sulfonamide]
500 to 5000 | O=S(=O)(Nc1cc(F)c(C(F)(F)F)cc1F)c1c[nH]c(-c2ccc(Br)cn2)c1 [Cpd 345, 5-(5-bromo-2-pyridyl)-N-[2,5-difluoro-4-(trifluoromethyl)phenyl]-1H-pyrrole-3-sulfonamide]
< 500 | O=S(=O)(Nc1cc(F)c(C(F)(F)F)cc1F)c1c[nH]c(-c2ncccc2Br)c1 [Cpd 346, 5-(3-bromo-2-pyridyl)-N-[2,5-difluoro-4-(trifluoromethyl)phenyl]-1H-pyrrole-3-sulfonamide]
